# Source: patent US20150258082A1, “COMBINATION THERAPY WITH GLUTAMINASE INHIBITORS” (priority 2014, published 2015)
# Where two headings read alike, the source gives them in different places.
# Columns and labels:
# [1] = target: T1, recombinant form of Glutaminase 1 (GAC) (Homo sapiens, UniProt O94925); experiment: Recombinant Enzyme Assay (no preincubation); assay type: biochemical; settings: read-out: GAC Delta N2 IC50 no preinc
# T1 sequence (O94925 137-598 isoform O94925-3 limits assumed): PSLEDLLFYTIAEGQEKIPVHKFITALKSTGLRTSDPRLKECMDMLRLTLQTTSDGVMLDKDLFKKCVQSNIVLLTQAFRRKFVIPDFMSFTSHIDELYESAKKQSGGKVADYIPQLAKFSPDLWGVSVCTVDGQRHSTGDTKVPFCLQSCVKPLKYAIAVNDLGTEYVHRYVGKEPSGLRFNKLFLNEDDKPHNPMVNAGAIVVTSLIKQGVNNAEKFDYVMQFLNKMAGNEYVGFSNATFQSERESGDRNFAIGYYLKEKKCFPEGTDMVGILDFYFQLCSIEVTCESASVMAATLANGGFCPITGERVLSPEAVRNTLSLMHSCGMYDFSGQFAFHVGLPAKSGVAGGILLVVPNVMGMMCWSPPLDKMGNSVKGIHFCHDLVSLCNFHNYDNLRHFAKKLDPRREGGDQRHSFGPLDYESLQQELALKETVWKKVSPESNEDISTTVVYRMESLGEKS
# Experimental: Compounds were assessed for their ability to inhibit the enzymatic activity of a recombinant form of Glutaminase 1 (GAC) using a biochemical assay that couples the production of glutamate (liberated by GAC) to glutamate dehydrogenase (GDH) and measuring the change in absorbance for the reduction of NAD^+ to NADH. […] Enzymatic reaction was started with the addition of 50 μL of enzyme solution (50 mM Tris-HCl pH 8.0, 0.2 mM EDTA, 150 mM K2HPO4, 0.1 mg/ml BSA, 1 mM DTT, 10 ppm antifoam, 4 units/ml GDH, 4 mM adenosine diphosphate, and 4 nM GAC) and read in a Molecular Devices M5 plate reader at 20° C. The plate reader was configured to read absorbance (λ=340 nm) in kinetic mode for 15 minutes. Data was recorded as milli-absorbance units per minute and slopes were compared to a control compound and a DMSO-only control on the same plate. Compounds with slopes less than the DMSO control were considered inhibitors and plate variability was assessed using the control compound.
# P493-6 (myc "on") cells = experiment: Cell Proliferation Assay, P493-6 cells, 72 hrs; assay type: cell-based
# Experimental: For compound assay, P493-6 cells were plated in 96-well V-bottom plates on the day of compound addition in 50 μl of growth media at a cell density of 200,000 cells/ml (10,000 cells/well). Compounds were serially diluted in 100% DMSO at 200-times the final concentration. Compounds were diluted 100-fold into growth media and then 50 μl of this mixture was added to cell plates making the final concentration of DMSO 0.5%. Cells were incubated with compound for 72 hrs at 37° C. with 5% CO2 and analyzed for antiproliferative effects either by Cell Titer Glo (Promega) or FACS analysis using the Viacount (Millipore) kit on the Guava instrument.
# [2] = target: T1, recombinant form of Glutaminase 1 (GAC); experiment: Recombinant Enzyme Assay - Time Dependence (60 min preincubation); assay type: biochemical
# Experimental: The enzyme/compound mix was sealed with sealing foil (USA Scientific) and allowed to incubate, with mild agitation, for 60 minutes at 20° C. Enzymatic reaction was started with the addition of 50 μL of substrate solution (50 mM Tris-HCl pH 8.0, 0.2 mM EDTA, 150 mM K2HPO4, 0.1 mg/ml BSA, 1 mM DTT, 20 mM L-glutamine, 2 mM NAD^+, and 10 ppm antifoam) and read in a Molecular Devices M5 plate reader at 20° C. The plate reader was configured to read absorbance (λ=340 nm) in kinetic mode for 15 minutes. Data was recorded as milli-absorbance units per minute and slopes were compared to a control compound and a DMSO-only control on the same plate. Compounds with slopes less than the DMSO control were considered inhibitors and plate variability was assessed using the control compound.
# [3] = system: RPMI-8226 multiple myeloma xenograft; experiment: Multiple myeloma xenograft study, compound 670 and lenalidomide; assay type: in vivo, mice; settings: compound 670 200 mg/kg oral BID + lenalidomide 30 mg/kg oral QD, 24 days; P<0.0001 vs vehicle and lenalidomide alone, P<0.01 vs CB-839 alone
# Experimental: Female scid/beige mice (n=40) age 7-8 weeks were implanted subcutaneously with 3×10^7 RPMI-8226 multiple myeloma cells per mouse mixed 1:1 with Matrigel. […] Tumors were measured with calipers three times per week and tumor volume calculated using the formula tumor volume (mm^3)=(a×b^2/2) where ‘b’ is the smallest diameter and ‘a’ is the largest perpendicular diameter. ****P-value<0.0001 (One-way ANOVA vs. vehicle and vs. Lenalidomide alone) **P-value<0.01 (One-way ANOVA vs. CB-839 alone).
# [4] = system: RPMI-8226 multiple myeloma xenograft; experiment: Multiple myeloma xenograft study with CB-839, pomalidomide and combination; assay type: in vivo, mice; settings: CB-839 200 mg/kg oral BID + pomalidomide 1 mg/kg oral QD; P<0.01
# Experimental: Female scid/beige mice (age 7-9 weeks) were implanted subcutaneously with 1×10^7 RPMI-8226 myeloma cells mixed 1:1 with matrigel. Tumors were measured with calipers three times per week and tumor volume calculated using the formula tumor volume (mm^3)=(a×b^2/2) where ‘b’ is the smallest diameter and ‘a’ is the largest perpendicular diameter.
# [5] = system: MM1S cells and RPMI-8226 cells; experiment: Combination of compound 670 with pomalidomide or lenalidomide, cell survival and combination index; assay type: cell-based; settings: 72 hours; cells resistant to pomalidomide or lenalidomide or not; combination index by Calcusyn
# Experimental: At the end of the incubation, cell viability was measured using Cell Titer Glo as per manufacturer's protocol (Promega, Madison, Wis.). Measured values for compound-treated cells were normalized to DMSO-treated cells and data is reported as a cell survival ratio with a value of 1 (one) corresponding to maximum cell survival and a value of 0 (zero) corresponding to no cell survival. Cell survival ratios for all compound treatments are represented as bar graphs. Combination indices were calculated using the Calcusyn program (biosoft.com) and reported for individual mixtures of compound 670 and either pomalidomide or lenalidomide. Compound mixtures that produced a synergistic anti-tumor activity are highlighted.
# RPMI-8226 cells = experiment: Anti-proliferative activity in multiple myeloma cell line RPMI-8226 (Cell Titer Glo, 72 hrs); assay type: cell-based
# Experimental: Multiple myeloma cell lines RPMI-8226 and MM1S were seeded in 96-well plates at a density of 10,000 cells/well. […] Cells were incubated for 72 hrs at 37° C. with 5% CO2 and analyzed for antiproliferative effects by Cell Titer Glo (Promega). Cell proliferation (% of DMSO control) was determined by comparing the Cell Titer Glo signal (rfu) of compound 670-, lenalidomide-, or pomalidomide-treated cells versus DMSO treated cells. Cell viability (% DMSO of control) was plotted against compound concentration and resulting curves were fit using a four-parameter dose response to determine IC50 values.
# [6] = P493-6, 72 h, read-out: Cell prolif P493 72h IC50, P493 cells, 72h
compound,measurement,setting,value
O=C(Nc1nnc(CCCCc2nnc(NC(=O)[C@@H]3CC3c3ccccc3)s2)s1)C1C[C@H]1c1ccccc1 (some centres unmarked) [compound 90],IC50,[1],> 20000 nM
COC(=O)NCC1=CC(CC(=O)Nc2ccc(CCCCc3nnc(NC(=O)Cc4cccc(CNC(=O)OC)c4)s3)nn2)=CCC1 [compound 573],IC50,"P493-6 (myc ""on"") cells; [6]",15 nM
same,IC50,[2],4 nM
O=C(OCCCN1CCOCC1)OCN(C(=O)Cc1ccccc1)c1nnc(CCSCCc2nnc(N(COC(=O)OCCCN3CCOCC3)C(=O)Cc3ccccc3)s2)s1 [compound 28],IC50,"P493-6 (myc ""on"") cells; [6]",1000 nM
O=C(Nc1nnc(CCSCCc2nnc(NC(=O)C(c3ccccc3)N3CCNCC3)s2)s1)C(c1ccccc1)N1CCNCC1 (centres unmarked) [compound 79],IC50,"P493-6 (myc ""on"") cells; [6]",20000 nM
O=C(Cc1cccc(OC(F)(F)F)c1)Nc1ccc(CCCCc2nnc(NC(=O)Cc3ccccn3)s2)nn1 [compound 670],IC50,"P493-6 (myc ""on"") cells; read-out: Cell prolif P493 72h IC50, P493 cells, 72h",30 nM
same,"reduction in tumor size, combination with lenalidomide vs either agent alone",[3],greater reduction in tumor size
same,"reduction in tumor size, combination with pomalidomide vs either agent alone",[4],greater reduction in tumor size
same,combination effect with lenalidomide in multiple myeloma cells,[5],synergizes
same,combination effect with pomalidomide in multiple myeloma cells,[5],synergizes
O=C(COC(C(=O)Nc1nnc(CCCCc2nnc(NC(=O)C(COC(=O)C3CCNCC3)c3ccccc3)s2)s1)c1ccccc1)C1CCNCC1 (centres unmarked) [compound 302],IC50,"P493-6 (myc ""on"") cells; [6]",870 nM
same,IC50,[1],7000 nM
O=C(Cc1ccc(Cl)c(CC(F)(F)F)c1)Nc1ccc(CCCCc2nnc(NC(=O)Cc3ccccn3)s2)nn1 [compound 721],IC50,"P493-6 (myc ""on"") cells; P493-6, 72 h, read-out: Cell prolif P493 72h IC50, P493-6 cells, 72 h",22 nM
Nc1cccc2c1CN(C1CCC(=O)NC1=O)C2=O (centres unmarked) [lenalidomide],sensitivity of RPMI-8226 myeloma cells to the agent,RPMI-8226 cells,resistant
C=C(C(=O)Nc1nnc(CCCCc2nnc(NC(=O)C(COC(=O)CCN3CCOCC3)c3ccccc3)s2)s1)c1ccccc1 (centres unmarked) [compound 281],IC50,"P493-6 (myc ""on"") cells; [6]",660 nM
CCOc1ccc(C(O)C(=O)Nc2nnc(CCCCc3ccc(NC(=O)Cc4ccccc4)nn3)s2)cc1 (centres unmarked) [compound 558],IC50,"P493-6 (myc ""on"") cells; [6]",28 nM
Nc1cccc2c1C(=O)N(C1CCC(=O)NC1=O)C2=O (centres unmarked) [pomalidomide],sensitivity of RPMI-8226 myeloma cells to the agent,RPMI-8226 cells,resistant
O=C(Cc1cccc(F)c1)Nc1nnc(CCCCc2nnc(NC(=O)C[C@@H](O)C(=O)O)s2)s1 [compound 153],IC50,"P493-6 (myc ""on"") cells; [6]",> 50000 nM
same,IC50,[1],1000 nM
O=C(COC(C(=O)Nc1nnc(CCCCc2nnc(NC(=O)C(COC(=O)C3CCN(C(=O)OCc4ccccc4)CC3)c3ccccc3)s2)s1)c1ccccc1)C1CCN(C(=O)OCc2ccccc2)CC1 (centres unmarked) [compound 301],IC50,"P493-6 (myc ""on"") cells; [6]",230 nM
